The experiment has as its system Staphylococcus aureus. Briefly: Antibacterial activity against methicillin-resistant Staphylococcus aureus at 25 ug/mL. It is filed as functional, organism-based.

Active and inactive are the calls of the source. No cut-off for these calls is given here.

For the compound `C/C=C/C=C/C=C(C)/C=C/C(O)=C1\C(=O)CNC1=O`, the inhibition entry was “Active”.

Source of the values: ChEMBL document CHEMBL1150646, “Ravenic acid, a new tetramic acid isolated from a cultured microfungus, Penicillium sp” (J Nat Prod, 2002).
